Test [1] has as its target T1, Signal transducer and activator of transcription 5A (Homo sapiens, UniProt P42229).
T1 sequence (P42229 whole entry): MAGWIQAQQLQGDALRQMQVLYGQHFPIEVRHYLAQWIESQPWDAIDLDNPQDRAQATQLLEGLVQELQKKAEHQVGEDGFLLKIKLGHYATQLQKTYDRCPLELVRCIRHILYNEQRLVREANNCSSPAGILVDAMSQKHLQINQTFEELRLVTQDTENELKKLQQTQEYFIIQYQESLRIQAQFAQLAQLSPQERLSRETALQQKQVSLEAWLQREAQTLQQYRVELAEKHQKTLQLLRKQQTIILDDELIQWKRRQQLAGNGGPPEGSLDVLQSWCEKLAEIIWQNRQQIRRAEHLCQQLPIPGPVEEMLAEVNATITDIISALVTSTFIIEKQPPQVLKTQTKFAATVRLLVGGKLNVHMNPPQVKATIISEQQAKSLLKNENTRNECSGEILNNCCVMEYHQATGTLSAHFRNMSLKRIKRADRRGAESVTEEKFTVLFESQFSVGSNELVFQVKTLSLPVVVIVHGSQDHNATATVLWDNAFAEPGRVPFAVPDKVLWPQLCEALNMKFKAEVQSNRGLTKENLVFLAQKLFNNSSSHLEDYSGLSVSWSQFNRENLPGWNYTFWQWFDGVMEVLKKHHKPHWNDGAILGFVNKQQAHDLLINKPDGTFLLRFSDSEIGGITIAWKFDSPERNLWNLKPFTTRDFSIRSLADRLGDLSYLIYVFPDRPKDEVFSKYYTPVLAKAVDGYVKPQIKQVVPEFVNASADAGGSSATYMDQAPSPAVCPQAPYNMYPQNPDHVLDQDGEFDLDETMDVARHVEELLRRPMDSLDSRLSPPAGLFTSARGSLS
As to the kind of experiment: Inhibition of STAT5 (unknown origin).

Test [2] has as its target Signal transducer and activator of transcription 3 (Homo sapiens, UniProt P40763). As to the kind of experiment: Inhibition of STAT3 (unknown origin).
The target in test [3] is T2, Signal transducer and activator of transcription 1-alpha/beta (Homo sapiens, UniProt P42224).
T2 sequence (P42224 whole entry): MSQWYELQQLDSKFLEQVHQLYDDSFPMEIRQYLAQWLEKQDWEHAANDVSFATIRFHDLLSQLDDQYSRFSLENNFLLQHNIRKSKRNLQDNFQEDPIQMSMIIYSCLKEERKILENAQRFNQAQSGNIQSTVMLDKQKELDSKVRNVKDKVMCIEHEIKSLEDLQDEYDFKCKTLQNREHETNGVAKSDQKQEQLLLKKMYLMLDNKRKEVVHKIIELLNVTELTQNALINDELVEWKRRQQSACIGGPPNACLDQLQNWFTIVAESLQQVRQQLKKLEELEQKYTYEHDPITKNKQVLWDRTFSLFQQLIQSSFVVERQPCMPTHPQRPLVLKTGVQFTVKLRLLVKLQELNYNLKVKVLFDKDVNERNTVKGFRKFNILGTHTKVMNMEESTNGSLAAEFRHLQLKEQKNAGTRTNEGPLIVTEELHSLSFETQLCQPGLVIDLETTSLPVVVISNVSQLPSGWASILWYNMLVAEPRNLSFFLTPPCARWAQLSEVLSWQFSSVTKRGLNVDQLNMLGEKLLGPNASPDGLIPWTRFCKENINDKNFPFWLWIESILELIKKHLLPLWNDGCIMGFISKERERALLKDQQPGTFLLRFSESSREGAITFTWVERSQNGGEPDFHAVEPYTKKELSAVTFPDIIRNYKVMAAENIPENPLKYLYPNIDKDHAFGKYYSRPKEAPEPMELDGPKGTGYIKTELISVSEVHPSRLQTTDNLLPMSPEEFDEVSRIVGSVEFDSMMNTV
As to the kind of experiment: Inhibition of STAT1 (unknown origin).

Test [4] concerns the target T1, Signal transducer and activator of transcription 5A. As to the kind of experiment: Inhibition of STAT5 DNA binding activity in human K562 cells after 24 hrs by electrophoretic mobility shift assay. Type of test: cell-based. In general terms: A gel shift assay detects complexes by their altered migration in electrophoresis.
Test [5] concerns the target Tyrosine-protein kinase JAK2 (Mus musculus, UniProt Q62120, V617F). As to the kind of experiment: Inhibition of JAK2 V617F mutant in mouse BAF3 cells. It is filed as cell-based.
The subject of test [6] is BaF3. As to the kind of experiment: Cytotoxicity against mouse BAF3 cells expressing JAK2 V617F mutant after 48 hrs by CellTiterGlo assay. Type of test: functional, cell-based. The following applies: BaF3, 48 h. Background: Cellular ATP, detected with luciferase, serves as a proxy for viable cell number.
Test [7] can be described thus: cells. The following applies: Homo sapiens, EOL1.
Description: Antiproliferative activity against human EOL-1 cells by CellTiterGlo assay

The text below walks through data of ChEMBL document CHEMBL3217496, “Inhibitors of Stat5 protein signalling” (Medchemcomm, 2012).

Structures are written as SMILES.

Signal transducer and activator of transcription 3, sequence (P40763 whole entry): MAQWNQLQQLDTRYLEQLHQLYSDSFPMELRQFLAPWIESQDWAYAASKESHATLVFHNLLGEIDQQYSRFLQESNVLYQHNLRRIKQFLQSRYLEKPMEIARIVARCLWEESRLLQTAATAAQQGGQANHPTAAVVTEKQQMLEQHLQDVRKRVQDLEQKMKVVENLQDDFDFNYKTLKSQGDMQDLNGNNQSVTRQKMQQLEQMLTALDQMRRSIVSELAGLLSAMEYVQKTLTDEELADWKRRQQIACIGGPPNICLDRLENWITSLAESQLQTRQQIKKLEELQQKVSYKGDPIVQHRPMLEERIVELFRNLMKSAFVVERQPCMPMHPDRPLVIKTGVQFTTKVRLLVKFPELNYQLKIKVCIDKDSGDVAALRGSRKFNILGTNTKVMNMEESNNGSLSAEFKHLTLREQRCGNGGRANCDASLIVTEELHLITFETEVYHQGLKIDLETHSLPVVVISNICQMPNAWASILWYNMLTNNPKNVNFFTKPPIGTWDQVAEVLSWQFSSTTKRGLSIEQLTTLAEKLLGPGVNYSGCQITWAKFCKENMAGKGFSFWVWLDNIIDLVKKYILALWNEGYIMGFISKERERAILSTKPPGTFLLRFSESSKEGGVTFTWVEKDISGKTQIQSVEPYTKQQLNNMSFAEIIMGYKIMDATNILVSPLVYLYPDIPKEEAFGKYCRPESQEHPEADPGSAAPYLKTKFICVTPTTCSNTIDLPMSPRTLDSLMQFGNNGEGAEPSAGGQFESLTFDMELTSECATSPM
Tyrosine-protein kinase JAK2, sequence (Q62120 as listed by the source V617F): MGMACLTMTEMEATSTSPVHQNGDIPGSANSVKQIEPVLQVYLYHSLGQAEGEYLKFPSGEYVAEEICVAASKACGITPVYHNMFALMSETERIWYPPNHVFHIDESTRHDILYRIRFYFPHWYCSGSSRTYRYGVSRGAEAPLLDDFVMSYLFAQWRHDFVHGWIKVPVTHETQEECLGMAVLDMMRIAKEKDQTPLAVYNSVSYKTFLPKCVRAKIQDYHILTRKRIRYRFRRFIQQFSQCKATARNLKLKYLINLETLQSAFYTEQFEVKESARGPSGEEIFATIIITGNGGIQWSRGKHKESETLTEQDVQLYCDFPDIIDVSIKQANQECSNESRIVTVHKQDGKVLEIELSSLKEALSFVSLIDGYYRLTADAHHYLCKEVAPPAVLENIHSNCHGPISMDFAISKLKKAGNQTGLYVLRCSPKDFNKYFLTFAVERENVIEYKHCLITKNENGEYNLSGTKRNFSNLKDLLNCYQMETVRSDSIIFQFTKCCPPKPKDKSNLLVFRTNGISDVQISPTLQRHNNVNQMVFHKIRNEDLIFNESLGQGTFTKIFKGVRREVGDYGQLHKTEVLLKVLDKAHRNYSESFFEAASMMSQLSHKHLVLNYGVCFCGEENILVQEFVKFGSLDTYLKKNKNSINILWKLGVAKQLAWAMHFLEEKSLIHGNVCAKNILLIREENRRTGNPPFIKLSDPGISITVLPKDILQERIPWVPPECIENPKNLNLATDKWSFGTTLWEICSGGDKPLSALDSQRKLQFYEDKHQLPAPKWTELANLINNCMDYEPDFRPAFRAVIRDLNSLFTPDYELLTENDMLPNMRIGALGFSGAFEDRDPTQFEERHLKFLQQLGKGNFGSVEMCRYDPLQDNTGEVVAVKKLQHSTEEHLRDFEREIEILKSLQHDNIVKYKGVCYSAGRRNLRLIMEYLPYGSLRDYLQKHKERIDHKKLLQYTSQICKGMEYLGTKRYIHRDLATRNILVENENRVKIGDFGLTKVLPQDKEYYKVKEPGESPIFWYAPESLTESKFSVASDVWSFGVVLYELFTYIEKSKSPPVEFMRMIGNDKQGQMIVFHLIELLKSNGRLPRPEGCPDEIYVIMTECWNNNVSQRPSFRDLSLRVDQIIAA

Usually IC50 stands for the concentration that gives 50% inhibition. Take `O=C(N/N=C/c1coc2ccccc2c1=O)c1cccnc1`: the IC50 in test [1] came out at 47000 nM; in test [2], 180000 nM; in test [3], 130000 nM.

Consider `Cc1cc(Nc2ncc3cc(-c4c(Cl)cccc4Cl)c(=O)n(C)c3n2)ccc1F`, for which the IC50 in test [4] amounted to 5 nM.

Take `N#CCNC(=O)c1ccc(-c2ccnc(Nc3ccc(N4CCOCC4)cc3)n2)cc1` [MOMELOTINIB]: it took 1500 nM to reach half-maximal inhibition in test [5] (IC50).

For `N#CC[C@H](C1CCCC1)n1cc(-c2ncnc3[nH]ccc23)cn1` [RUXOLITINIB], 126 nM corresponded to half-maximal inhibition in test [6] (IC50).

`CNC(=O)c1cc(Oc2ccc(NC(=O)Nc3ccc(Cl)c(C(F)(F)F)c3)cc2)ccn1` [SORAFENIB] gave an IC50 in test [7] of 2.3 nM.
